According to ChEMBL document CHEMBL1201862, “PubChem BioAssay data set” (2004):
Calls of active or inactive are those of the source.

What was measured:
[1] = Fluorescence-based cell-based high throughput dose response assay for inhibitors of the interaction of nucleotide-binding oligomerization domain containing 2 (NOD2) and the receptor-interacting serine-threonine kinase 2 (RIPK2).; type: functional; settings: Homo sapiens
Fatty acid synthase [2] = target: T1, Fatty acid synthase (Homo sapiens, UniProt P49327); experiment: FAS thioesterase domain inhibitors, dose response, biochemical, kinetic fluorescence intensity (AID 624326); type: functional;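 note: rate of fluorescence rise from hydrolysis of a fluorogenic O-methyl fluorescein ester substrate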
Beta Lactamase = Beta Lactamase (Pseudomonas aeruginosa, UniProt Q932Y6); experiment: beta-lactamase reporter inhibitor potency, dose response, artefact control for NOD2-RIPK2 interaction inhibitor project, BLA reporter cells, FRET fluorescence (AID 651552); type: functional, cell-based
Fatty acid synthase [3] = target: T1, Fatty acid synthase; experiment: FAS thioesterase domain inhibitors, dose response, biochemical, endpoint fluorescence intensity, uHTS hits (AID 624327); type: functional;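 note: fluorescence from hydrolysis of an O-methyl fluorescein acyl ester substrate by the enzyme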
[4] = DNA binding of candidate compounds, dose response, artefact control for RAD54 inhibitor project, biochemical, fluorescence polarization, cherry-pick (AID 651673); type: functional
[5] = target: T2, DNA repair and recombination protein RAD54-like (Homo sapiens, UniProt Q92698); experiment: inhibitors of human RAD54 branch migration, confirmation, biochemical, fluorescence, cherry-picked samples, dose series (AID 651657); type: functional
T2 sequence (Q92698 whole entry): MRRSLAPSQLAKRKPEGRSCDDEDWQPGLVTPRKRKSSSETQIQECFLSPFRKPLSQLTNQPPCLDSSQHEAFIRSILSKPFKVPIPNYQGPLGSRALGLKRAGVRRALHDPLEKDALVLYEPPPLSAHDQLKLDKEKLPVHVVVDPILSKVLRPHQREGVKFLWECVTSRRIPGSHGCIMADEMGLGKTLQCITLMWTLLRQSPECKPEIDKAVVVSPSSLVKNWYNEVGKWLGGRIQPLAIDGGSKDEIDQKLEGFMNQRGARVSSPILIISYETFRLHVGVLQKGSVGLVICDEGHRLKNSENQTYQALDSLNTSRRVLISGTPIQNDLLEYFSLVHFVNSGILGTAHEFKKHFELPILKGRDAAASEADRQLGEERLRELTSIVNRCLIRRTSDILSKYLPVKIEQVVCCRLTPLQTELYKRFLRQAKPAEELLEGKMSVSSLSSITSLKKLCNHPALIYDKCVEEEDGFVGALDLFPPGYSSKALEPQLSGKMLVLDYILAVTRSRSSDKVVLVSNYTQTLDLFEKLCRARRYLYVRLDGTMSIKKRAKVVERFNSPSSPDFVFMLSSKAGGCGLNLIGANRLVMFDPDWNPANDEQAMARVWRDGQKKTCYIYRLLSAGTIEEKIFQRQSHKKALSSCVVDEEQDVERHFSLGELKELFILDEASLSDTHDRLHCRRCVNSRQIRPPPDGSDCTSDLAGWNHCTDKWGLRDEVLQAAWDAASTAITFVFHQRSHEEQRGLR

HEK293 = experiment: inhibitors of LMP1-driven NF-kB reporter, dose response, cell-based, HEK293, luciferase, cherry-pick (AID 588343); type: functional; settings: Homo sapiens
[6] = inhibitors of SNCA 5'UTR-driven reporter translation, confirmation, H4 neuroglioma cells, luminescence (AID 1988); type: functional, cell-based
[7] = inhibitors of firefly luciferase expression or activity, dose response, H4 neuroglioma cells, luminescence (AID 1990); type: functional, cell-based
[8] = HEK293T cell cytotoxicity, dose response, cytotoxicity control for HIV Vif inhibitor project, cherry-picks (AID 652208); type: functional, cell-based
[9] = Luminescence Cell-Based Dose Response HTS to Identify Inhibitors of 5'UTR Stem-Loop Driven Prion Protein mRNA Translation in H4 Neuroglioblastoma Cells. [Related pubchem assays: 1827 (Project Summary), 1813 (Primary HTS)]; type: functional
[10] = target: T3, Corticotropin-releasing factor receptor 2/Corticotropin-releasing factor-binding protein (Homo sapiens, UniProt P24387+Q13324); experiment: Dose Response confirmation of uHTS hits for small molecule antagonists of the CRF-binding protein and CRF-R2 receptor complex.; type: functional; settings: read-out: IC50_Mean
T3 sequence (Q13324 whole entry): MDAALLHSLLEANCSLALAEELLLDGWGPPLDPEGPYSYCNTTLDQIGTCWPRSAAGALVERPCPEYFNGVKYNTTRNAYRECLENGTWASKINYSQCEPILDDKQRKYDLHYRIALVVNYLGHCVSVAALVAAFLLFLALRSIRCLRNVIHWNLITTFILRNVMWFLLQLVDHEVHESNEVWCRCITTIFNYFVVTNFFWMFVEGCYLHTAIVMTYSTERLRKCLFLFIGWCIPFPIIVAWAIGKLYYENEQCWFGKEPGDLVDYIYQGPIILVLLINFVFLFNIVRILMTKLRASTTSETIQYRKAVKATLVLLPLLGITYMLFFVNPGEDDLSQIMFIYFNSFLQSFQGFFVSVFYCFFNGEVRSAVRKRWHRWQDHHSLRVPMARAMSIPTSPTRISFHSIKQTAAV
T3 sequence (P24387 whole entry): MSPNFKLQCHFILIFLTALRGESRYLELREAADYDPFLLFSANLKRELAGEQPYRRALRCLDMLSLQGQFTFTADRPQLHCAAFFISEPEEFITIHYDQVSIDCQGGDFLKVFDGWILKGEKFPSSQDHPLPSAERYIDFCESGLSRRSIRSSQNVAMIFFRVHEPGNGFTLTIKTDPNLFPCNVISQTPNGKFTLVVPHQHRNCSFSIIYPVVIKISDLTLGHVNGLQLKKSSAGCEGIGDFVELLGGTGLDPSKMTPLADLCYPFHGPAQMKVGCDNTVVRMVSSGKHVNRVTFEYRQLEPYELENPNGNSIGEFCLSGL

[11] = CRF-BP/CRF-R2 complex antagonists, dose response, cell-based, uHTS hits, 384-well (AID 651639); type: functional, Homo sapiens; settings: read-out: IC50_Mean
[12] = target: T3, Corticotropin-releasing factor receptor 2/Corticotropin-releasing factor-binding protein; experiment: activators of CRF receptor 2 with binding protein – uHTS hits, confirmation (AID 602473); type: functional; settings: read-out: EC50_Mean
[13] = target: Arf-GAP with SH3 domain, ANK repeat and PH domain-containing protein 1 (Homo sapiens, UniProt Q9ULH1); type: functional;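 note: biochemical fluorescence polarization dose–response screen measuring inhibition of ASAP1; ASAP1 GAP domain stimulating GTP hydrolysis by truncated human ARF1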
[14] = target: ADP-ribosylation factor GTPase-activating protein 1 (Rattus norvegicus, UniProt Q62848); experiment: Fluorescence polarization-based biochemical high throughput dose response screening assay to identify inhibitors of ADP-ribosylation factor GTPase activating protein 1 (ARFGAP1).; type: functional
[15] = inhibitors of clade B AD8 Env fusion, dose response, cell-based, cherry-pick (AID 652062); type: functional;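 note: luciferase signal from cell-cell fusion driven by HIV-1 clade B AD8 Env; potency is for inhibitors of fusion seen as a drop in luminescence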
[16] = CEM21 lymphoblast cell cytotoxicity, dose response, cytotoxicity control for viral fusion inhibitor project, CellTiter-Glo luminescence, cherry-picked (AID 652042); type: functional, cell-based;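 note: potency for signal decrease meaning cytotoxicity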
Vero = experiment: Vero cell toxicity, dose response, cytotoxicity control, plate reader, cherry-pick samples (AID 687020); type: functional, cell-based; settings: Chlorocebus sabaeus
[17] = target: T4, Type-1 angiotensin II receptor (Homo sapiens, UniProt P30556); experiment: AT1 receptor antagonists, dose response, selectivity assay for APJ receptor antagonist project, cell-based, uHTS hits (AID 463214); type: functional;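 note: antagonist potency against angiotensin II stimulated AT1 response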
T4 sequence (P30556 whole entry): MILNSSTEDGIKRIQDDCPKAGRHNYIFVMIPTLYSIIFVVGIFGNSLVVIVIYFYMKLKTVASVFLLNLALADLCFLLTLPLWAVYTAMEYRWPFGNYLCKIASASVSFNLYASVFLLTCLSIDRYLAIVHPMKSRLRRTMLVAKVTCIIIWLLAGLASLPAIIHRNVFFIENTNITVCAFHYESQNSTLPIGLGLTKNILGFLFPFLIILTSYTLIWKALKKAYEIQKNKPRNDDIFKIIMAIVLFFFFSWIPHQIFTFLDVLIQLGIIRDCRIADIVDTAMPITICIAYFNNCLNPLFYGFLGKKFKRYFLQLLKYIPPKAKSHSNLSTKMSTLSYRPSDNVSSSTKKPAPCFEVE

Beta-galactosidase = Beta-galactosidase (Escherichia coli, UniProt Q8VNN2); experiment: PubChem AID 485352; type: functional
Galanin receptor type 3 = Galanin receptor type 3 (Homo sapiens, UniProt O60755); experiment: Fluorescence-based cell-based primary high throughput dose response assay to identify antagonists of the Galanin Receptor 3 (GalR3).; type: functional
[18] = target: Hepatocyte nuclear factor 4-alpha (Homo sapiens, UniProt P41235); type: functional, cell-based;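 note: biochemical luminescence-based dose-response counterscreen measuring inhibition of HNF4 dimerization, run alongside a screen for blockers of ABHD5–perilipin-5 interaction; split luciferase complementation of HNF4 fusion proteins in cell lysate measuring dimerization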
[19] = target: T5, RNA-binding protein pos-1 (Caenorhabditis elegans, UniProt G5EF15); experiment: inhibitors of POS-1/mex-3 RNA binding, dose response, biochemical, fluorescence polarization (AID 1964);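 note: purified POS-1 fused to maltose binding protein made in E. coli; potency of compounds blocking POS-1 binding to fluorescent RNA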
T5 sequence (G5EF15 whole entry): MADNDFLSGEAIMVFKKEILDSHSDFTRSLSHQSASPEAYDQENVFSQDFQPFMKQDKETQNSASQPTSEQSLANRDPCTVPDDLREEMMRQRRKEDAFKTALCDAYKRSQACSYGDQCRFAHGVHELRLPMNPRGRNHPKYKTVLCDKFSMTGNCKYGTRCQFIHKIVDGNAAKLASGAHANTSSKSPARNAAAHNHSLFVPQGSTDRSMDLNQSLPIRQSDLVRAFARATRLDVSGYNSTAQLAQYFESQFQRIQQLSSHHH

Genome polyprotein = Genome polyprotein (dengue virus type 2, UniProt P29990); experiment: Dengue-2 NS5 methyltransferase inhibitors, primary screen, biochemical, confirmation dose response (AID 588689); type: functional
Protein skinhead-1 = target: T6, Protein skinhead-1 (Caenorhabditis elegans, UniProt P34707); type: functional
T6 sequence (P34707 whole entry): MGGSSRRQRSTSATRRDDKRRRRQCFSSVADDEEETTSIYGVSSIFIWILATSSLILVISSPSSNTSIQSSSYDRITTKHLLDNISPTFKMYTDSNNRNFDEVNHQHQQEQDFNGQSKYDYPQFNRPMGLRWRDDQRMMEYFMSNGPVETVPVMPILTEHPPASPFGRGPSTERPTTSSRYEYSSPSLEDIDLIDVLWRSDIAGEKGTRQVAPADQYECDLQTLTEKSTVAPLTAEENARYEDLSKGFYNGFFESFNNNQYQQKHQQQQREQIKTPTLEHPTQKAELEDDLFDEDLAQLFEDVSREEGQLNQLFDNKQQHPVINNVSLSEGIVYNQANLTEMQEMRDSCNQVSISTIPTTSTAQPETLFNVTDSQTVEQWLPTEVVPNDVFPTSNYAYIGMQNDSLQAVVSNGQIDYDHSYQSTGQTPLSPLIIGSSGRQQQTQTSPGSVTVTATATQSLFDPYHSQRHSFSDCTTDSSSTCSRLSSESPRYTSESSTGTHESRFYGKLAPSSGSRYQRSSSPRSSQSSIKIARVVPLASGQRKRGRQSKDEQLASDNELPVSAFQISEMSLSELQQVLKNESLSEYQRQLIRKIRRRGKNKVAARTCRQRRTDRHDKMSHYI

[20] = target: T7, Zinc finger protein mex-5 (Caenorhabditis elegans, UniProt Q9XUB2); experiment: MEX-5/TCR-2 RNA interaction inhibitors, dose response, biochemical, C. elegans, fluorescence polarization (AID 1960)
T7 sequence (Q9XUB2 whole entry): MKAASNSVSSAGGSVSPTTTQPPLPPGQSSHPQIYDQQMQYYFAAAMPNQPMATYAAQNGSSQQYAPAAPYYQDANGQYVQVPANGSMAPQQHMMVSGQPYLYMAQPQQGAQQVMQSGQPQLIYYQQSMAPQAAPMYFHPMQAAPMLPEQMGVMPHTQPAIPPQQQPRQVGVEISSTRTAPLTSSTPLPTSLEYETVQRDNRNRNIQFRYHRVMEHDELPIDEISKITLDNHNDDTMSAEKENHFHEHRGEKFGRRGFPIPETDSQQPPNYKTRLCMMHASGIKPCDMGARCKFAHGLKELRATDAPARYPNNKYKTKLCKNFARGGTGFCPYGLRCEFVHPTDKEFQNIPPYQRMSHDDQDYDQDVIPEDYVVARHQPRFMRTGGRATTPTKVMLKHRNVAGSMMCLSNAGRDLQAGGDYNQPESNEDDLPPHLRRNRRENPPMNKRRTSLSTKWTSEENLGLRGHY

Arf-GAP with SH3 domain, ANK repeat and PH domain-containing protein 1, sequence (Q9ULH1 whole entry, the tested form may be a part): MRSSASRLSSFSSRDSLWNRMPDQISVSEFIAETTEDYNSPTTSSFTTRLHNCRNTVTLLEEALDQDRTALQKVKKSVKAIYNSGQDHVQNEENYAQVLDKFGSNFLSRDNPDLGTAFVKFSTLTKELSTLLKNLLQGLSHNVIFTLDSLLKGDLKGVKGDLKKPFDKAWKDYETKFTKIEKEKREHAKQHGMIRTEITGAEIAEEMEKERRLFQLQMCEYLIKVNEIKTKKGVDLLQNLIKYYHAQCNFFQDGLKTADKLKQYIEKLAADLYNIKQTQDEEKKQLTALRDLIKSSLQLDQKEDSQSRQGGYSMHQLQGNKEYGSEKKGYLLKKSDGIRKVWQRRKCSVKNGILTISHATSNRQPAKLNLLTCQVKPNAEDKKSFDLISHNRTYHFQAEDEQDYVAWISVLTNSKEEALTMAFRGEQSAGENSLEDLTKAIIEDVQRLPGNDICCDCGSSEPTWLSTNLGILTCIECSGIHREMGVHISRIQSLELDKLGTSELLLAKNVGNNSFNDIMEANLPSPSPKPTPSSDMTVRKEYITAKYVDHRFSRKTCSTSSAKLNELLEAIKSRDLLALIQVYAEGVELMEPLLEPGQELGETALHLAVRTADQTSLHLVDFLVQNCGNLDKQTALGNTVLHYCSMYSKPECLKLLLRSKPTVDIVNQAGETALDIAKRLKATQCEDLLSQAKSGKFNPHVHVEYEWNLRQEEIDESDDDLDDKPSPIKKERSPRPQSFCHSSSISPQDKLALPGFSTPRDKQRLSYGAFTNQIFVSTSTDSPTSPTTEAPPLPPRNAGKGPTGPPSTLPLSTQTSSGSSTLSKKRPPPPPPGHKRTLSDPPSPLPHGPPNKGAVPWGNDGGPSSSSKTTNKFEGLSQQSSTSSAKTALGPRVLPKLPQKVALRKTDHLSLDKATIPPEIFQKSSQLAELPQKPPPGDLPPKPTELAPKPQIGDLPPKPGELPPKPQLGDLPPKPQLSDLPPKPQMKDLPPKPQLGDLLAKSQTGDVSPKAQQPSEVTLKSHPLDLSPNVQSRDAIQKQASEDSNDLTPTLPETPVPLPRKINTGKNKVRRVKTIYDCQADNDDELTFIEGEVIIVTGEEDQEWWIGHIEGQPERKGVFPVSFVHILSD
ADP-ribosylation factor GTPase-activating protein 1, sequence (Q62848 whole entry, the tested form may be a part): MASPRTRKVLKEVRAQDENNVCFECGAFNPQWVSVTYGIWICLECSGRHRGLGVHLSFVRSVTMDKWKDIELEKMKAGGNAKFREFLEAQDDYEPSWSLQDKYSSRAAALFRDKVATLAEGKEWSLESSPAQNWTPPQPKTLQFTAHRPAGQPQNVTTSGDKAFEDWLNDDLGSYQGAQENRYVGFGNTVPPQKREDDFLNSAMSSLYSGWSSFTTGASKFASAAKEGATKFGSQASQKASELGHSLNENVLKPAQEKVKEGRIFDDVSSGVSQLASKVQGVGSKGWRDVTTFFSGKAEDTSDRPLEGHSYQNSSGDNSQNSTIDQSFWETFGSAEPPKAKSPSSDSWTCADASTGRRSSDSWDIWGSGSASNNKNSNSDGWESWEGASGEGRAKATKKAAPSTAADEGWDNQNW
T1 sequence (P49327 whole entry, the tested form may be a part): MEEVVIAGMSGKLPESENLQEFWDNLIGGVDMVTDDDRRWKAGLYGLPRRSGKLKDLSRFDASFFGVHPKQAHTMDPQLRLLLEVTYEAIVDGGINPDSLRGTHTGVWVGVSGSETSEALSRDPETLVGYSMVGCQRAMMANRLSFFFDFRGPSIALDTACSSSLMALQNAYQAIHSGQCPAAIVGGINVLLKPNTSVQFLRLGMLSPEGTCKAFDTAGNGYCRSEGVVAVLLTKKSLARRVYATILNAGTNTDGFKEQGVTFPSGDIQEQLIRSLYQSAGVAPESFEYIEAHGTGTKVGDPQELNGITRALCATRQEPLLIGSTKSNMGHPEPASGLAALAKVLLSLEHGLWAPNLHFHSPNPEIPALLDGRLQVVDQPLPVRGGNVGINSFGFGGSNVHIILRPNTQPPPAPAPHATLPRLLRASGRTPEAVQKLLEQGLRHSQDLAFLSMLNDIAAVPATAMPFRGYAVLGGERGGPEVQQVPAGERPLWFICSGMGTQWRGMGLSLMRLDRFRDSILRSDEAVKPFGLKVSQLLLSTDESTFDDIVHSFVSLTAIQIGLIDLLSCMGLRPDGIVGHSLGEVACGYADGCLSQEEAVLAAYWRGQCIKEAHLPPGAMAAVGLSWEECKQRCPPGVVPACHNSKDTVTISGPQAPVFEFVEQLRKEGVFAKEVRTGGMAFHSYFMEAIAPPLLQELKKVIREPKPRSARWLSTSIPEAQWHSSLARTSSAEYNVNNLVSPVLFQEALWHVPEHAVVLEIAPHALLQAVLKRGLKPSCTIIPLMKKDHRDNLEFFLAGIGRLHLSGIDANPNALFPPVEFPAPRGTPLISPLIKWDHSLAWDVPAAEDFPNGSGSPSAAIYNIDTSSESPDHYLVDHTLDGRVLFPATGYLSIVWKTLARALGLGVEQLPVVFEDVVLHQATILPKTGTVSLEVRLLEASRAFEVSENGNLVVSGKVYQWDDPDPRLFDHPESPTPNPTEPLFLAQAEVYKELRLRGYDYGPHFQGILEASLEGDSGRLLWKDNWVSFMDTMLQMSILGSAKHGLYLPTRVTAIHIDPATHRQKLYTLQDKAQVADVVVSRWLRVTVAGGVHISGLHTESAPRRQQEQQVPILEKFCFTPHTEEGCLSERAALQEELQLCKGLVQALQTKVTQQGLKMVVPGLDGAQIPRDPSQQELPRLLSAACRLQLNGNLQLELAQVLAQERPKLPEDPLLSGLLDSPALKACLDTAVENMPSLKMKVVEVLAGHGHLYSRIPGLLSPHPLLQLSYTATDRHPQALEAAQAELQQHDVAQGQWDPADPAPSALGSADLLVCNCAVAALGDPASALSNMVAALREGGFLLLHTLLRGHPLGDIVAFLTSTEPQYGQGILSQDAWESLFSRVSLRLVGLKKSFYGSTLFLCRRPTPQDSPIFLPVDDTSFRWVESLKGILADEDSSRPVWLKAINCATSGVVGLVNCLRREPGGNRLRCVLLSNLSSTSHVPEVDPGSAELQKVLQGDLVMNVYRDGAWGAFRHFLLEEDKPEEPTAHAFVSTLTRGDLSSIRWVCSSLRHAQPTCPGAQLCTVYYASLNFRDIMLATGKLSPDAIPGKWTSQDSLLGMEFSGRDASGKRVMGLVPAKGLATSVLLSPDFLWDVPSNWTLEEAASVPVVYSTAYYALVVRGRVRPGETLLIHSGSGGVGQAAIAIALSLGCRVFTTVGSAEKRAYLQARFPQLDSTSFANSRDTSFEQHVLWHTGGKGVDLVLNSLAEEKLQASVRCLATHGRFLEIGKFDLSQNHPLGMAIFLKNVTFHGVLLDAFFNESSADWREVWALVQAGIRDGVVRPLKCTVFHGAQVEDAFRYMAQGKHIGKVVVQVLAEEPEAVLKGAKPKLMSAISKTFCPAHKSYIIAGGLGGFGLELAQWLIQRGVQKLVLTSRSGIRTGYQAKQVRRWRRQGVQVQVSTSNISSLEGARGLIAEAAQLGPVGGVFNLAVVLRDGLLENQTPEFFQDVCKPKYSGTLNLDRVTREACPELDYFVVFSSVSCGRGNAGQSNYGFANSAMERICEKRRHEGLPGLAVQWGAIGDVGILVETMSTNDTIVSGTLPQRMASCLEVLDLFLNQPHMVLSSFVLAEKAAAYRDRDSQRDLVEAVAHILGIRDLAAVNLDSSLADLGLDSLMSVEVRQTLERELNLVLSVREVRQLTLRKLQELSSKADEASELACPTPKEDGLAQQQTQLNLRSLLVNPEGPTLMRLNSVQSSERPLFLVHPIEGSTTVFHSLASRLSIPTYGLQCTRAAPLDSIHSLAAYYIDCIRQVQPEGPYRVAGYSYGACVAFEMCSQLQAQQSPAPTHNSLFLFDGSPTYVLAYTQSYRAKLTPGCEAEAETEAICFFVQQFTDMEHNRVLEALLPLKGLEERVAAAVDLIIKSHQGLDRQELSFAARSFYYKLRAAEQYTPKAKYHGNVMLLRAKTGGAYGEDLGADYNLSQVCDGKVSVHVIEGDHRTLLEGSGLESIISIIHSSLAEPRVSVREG
Galanin receptor type 3, sequence (O60755 whole entry, the tested form may be a part): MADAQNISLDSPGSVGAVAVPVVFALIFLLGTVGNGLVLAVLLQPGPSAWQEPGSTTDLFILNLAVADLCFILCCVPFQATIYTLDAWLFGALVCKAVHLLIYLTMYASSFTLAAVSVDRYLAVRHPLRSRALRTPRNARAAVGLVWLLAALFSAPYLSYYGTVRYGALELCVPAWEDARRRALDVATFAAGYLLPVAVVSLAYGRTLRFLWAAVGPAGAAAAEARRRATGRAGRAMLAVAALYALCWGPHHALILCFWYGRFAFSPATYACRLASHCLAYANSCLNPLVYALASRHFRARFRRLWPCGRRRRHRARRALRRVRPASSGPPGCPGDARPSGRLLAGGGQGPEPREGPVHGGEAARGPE
Hepatocyte nuclear factor 4-alpha, sequence (P41235 whole entry, the tested form may be a part): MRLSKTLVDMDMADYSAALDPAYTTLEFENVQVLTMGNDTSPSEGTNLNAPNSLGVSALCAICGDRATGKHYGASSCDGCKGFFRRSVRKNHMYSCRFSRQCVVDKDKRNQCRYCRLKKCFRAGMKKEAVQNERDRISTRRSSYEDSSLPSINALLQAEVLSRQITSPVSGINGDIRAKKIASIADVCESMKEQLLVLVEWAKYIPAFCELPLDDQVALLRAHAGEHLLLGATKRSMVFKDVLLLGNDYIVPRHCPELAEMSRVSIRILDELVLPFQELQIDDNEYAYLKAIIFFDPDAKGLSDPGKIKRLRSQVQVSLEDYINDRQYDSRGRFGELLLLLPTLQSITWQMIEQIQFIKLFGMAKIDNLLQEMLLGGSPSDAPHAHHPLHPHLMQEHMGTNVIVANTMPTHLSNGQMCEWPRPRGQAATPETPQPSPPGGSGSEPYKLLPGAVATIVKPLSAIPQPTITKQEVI

With `CCOC(=O)[C@]12Cc3ccc(C)cc3[C@H]1N(C1CCCCC1)C(=O)c1ccccc12` the IC50 [1] was 2.19 µM (active), the IC50 (Fatty acid synthase [2]) was 6.79 µM (active) and the IC50 (Beta Lactamase) was 20 µM (inactive). The IC50 (Fatty acid synthase [3]) was 6.12 µM (active).
For `CCOC(=O)c1cnc2c(C)cc(Cl)cc2c1NCCCN1CCOCC1`, the AC50 [4] was 60.9 µM (active) and the AC50 [5] was 17.4 µM (active).
With `COc1ccc2cc(-c3cc(C(=O)OCC(=O)NC4CCS(=O)(=O)C4)c4ccccc4n3)ccc2c1` (configuration not stated) the AC50 (HEK293) was 1.09 µM (active), the EC50 [6] was 6.8 µM (active) and the EC50 [7] was 10.1 µM (inconclusive). The AC50 [8] was 29.3 µM (active) and the EC50 [9] was 7.41 µM (active).
With `CC(C)(C)c1cc(C(=O)NNC(=O)Nc2cccc(Cl)c2)n(Cc2ccccc2)n1` the IC50 [10] was 2 µM (active), the IC50 [11] was 5.13 µM (active) and the EC50 [12] was > 53 µM (inactive).
With `O=C(Cn1nc(-c2ccc3c(c2)OCCO3)ccc1=O)Nc1ccc(-n2cnnn2)cc1` the IC50 [13] was 38.5 µM (inactive).
In the case of `COc1cc(/C=C(\C#N)c2ccccn2)ccc1OCC(=O)Nc1c(Cl)cccc1Cl`, the IC50 [14] was 96.6 µM (inactive).
With `O=C(Nc1ccc(CN2CCOCC2)cc1)c1ccc(-c2cccc(Cl)c2)o1` the AC50 [15] was 32.2 µM (active), the IC50 [14] was 81.7 µM (inactive) and the AC50 [16] was 44.2 µM (active).
For `N=C(N/N=C/c1ccnc2ccccc12)SC1CC(=O)N(c2ccc(Br)cc2)C1=O` (configuration not stated), the IC50 [13] was 12.7 µM (inactive).
With `COc1ccc(OC)c(S(=O)(=O)N2c3ccccc3CC2C)c1` (configuration not stated) the IC50 [10] was 33.9 µM (active), the IC50 [11] was 3.48 µM (active) and the EC50 [12] was > 53 µM (inactive).
For `COc1ccc2ccccc2c1CNC(C)c1ccccc1` (configuration not stated), the AC50 (Vero) was 31 µM (active).
In the case of `Fc1ccc(NC(=S)NNc2ncc(C(F)(F)F)cc2Cl)c(F)c1`, the IC50 [17] was 15.6 µM (active), the EC50 (Beta-galactosidase) was > 40 µM (inactive) and the IC50 (Galanin receptor type 3) was 1.79 µM (active).
For `COC/C=C/C1=CC2=CC(=O)C(C)(OC(=O)C3CCCC3)C(=O)C2=CO1` (configuration not stated), the IC50 [18] was 11.4 µM (inactive), the EC50 [19] was > 300 µM (not active) and the IC50 (Genome polyprotein) was 90.2 µM (active). The IC50 (Protein skinhead-1) was > 100 µM (inactive) and the EC50 [20] was > 300 µM (not active).
